Measurements from the supplement of paper PMC10307832.

Key:
[1] = compound: NC1(c2ccc(-c3nc4ccn5c(=O)[nH]nc5c4cc3-c3ccccc3)cc2)CCC1 [MK-2206]; test: relative viability (nuclei count vs DMSO), 5 days (fraction); higher = more cells survive
In short: (§1)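 Five library-drug doses, separated by factors of √10, were pinned into 1536-well plates holding lung cancer cell lines after an overnight stay at 37 °C. Cells were fixed, permeabilised and Hoechst-stained in one step after 5 days without medium change, then imaged at 4×. Viability compares treated-well with vehicle-well nuclei, counted in MetaXpress, as a median across plates. Passing plates had control CV below 25% and at least one doubling.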

[2] = compound: CS(=O)(=O)N1CCN(Cc2cc3nc(-c4cccc5[nH]ncc45)nc(N4CCOCC4)c3s2)CC1 [Pictilisib]; test: as above
In short: as §1

Row | Cell Line | relative viability ([1]; 0.01 µM) | relative viability ([1]; 0.03162 µM) | relative viability ([1]; 0.3162 µM) | relative viability ([1]; 1 µM) | relative viability ([2]; 0.02 µM) | relative viability ([2]; 0.06325 µM) | relative viability ([2]; 0.6325 µM) | relative viability ([2]; 1 µM, anchor plate) | relative viability ([2]; 2 µM)
1 | LU99A | 1.01 | 1.07 | 0.961 | 1.02 | 1.01 | 0.971 | 0.794 | 0.327 | 0.425
2 | LXF-289 | 0.995 | 1.07 | 1.03 | 1.09 | 0.996 | 1.01 | 1.08 | 0.814 | 0.92
3 | NCI-H23 | 0.944 | 0.909 | 0.896 | 0.783 | 1.01 | 1.09 | 0.808 | 0.525 | 0.478
4 | NCI-H322M | 0.914 | 1.06 | 0.981 | 1.05 | 0.988 | 0.973 | 0.714 | 0.531 | 0.453
5 | NCI-H358 | 1.01 | 0.977 | 0.972 | 0.871 | 0.983 | 0.884 | 0.786 | 0.356 | 0.355
6 | NCI-H441 | 1.09 | 1.05 | 0.845 | 0.921 | 1.01 | 1.06 | 0.595 | 0.514 | 0.48
7 | NCI-H460 | 0.997 | 1.03 | 1.02 | 0.921 | 0.993 | 1.02 | 0.933 | 0.381 | 0.353
8 | NCI-H520 | 0.992 | 0.871 | 0.553 | 0.331 | 0.998 | 0.886 | 0.361 | 0.298 | 0.203
9 | NCI-H522 | 0.916 | 1.01 | 0.885 | 0.696 | 1 | 1.05 | 0.768 |  | 0.648
10 | NCI-H596 | 1.07 | 0.929 | 0.948 | 0.669 | 0.98 | 0.957 | 0.684 | 0.405 | 0.373
11 | NCI-H647 | 0.951 | 1.11 | 0.921 | 0.744 | 1.09 | 1.03 | 0.78 | 0.476 | 0.471
12 | NCI-H650 | 0.986 | 0.854 | 0.97 | 0.764 | 1.03 | 0.958 | 0.848 | 0.865 | 0.687
13 | NCI-H661 | 0.997 | 1.02 | 1.03 | 1.01 | 1.02 | 1.05 | 1.03 | 0.424 | 0.672
14 | NCI-H727 | 0.976 | 1.01 | 0.901 | 0.894 | 1.04 | 0.92 | 0.914 | 0.39 | 0.536
